# Measurements reported in patent publication EP3939596A1, “A COMPOSITION FOR TREATING HELMINTH INFESTATION IN A MAMMAL” (Bimeda Animal Health Limited, priority 2020, dated 2022).
# Tests used:
# [1] = Stability of α-hederin solutions on storage (visual); assay type: physicochemical; conditions: for stability of solution: 10 wt.% α-hederin in 85.5 wt.% 1,2-Propanediol and 4.5 wt.% Benzyl alcohol
# adult fluke = assay: In-vivo efficacy study: fluke counts at post mortem in infected sheep after oral treatment, compared with untreated control sheep; conditions: 50 mg/kg
# Experimental: Four sheep infected with adult fluke were treated with an IVL-11 oral solution formulation of Table 1: Table 1
# The solution was orally administered to the sheep to provide a dosage of α-hederin of 50 mg/kg and then worm counts compared to counts in untreated control sheep. Table 2: summary of efficacy following treatment of four sheep with IVL-11 orally at 50mg/kg compared with fluke counts in untreated control sheep
# [2] = Plasma/blood level after oral administration; assay type: in vivo; conditions: treated sheep
# Description: The Applicant has addressed the problems of the prior art by identifying a natural compound present in ivy (Hedera) that is effective at treating helminth infestations in a mammal. The natural compound is α-hederin, a water soluble pentacyclic triterpenoid saponin. The compound is quite a large molecule and would not be anticipated to be absorbed from the rumen following oral administration, but would be expected to be absorbed from the small intestine. […] This is highly surprising given the low plasma levels of α-hederin in treated sheep.
# IVL-11 is a relatively large particle and so would not be anticipated to be absorbed from the rumen following oral administration. Instead, absorption from the small intestine would be predicted.
# [3] = Solubility of α-hederin in 1,2-propanediol; assay type: physicochemical
substance,measurement,setting,value
α-hederin [IVL-11],"stability (appearance) of solution in 1,2-propanediol","[1]; 5 % solution, 13 days at room temperature",cloudy at the top
same,"stability (appearance) of solution in 1,2-propanediol","[1]; 10 % solution, 13 days at room temperature",became cloudy
same,stability of solution,[1]; 6 months at 5°C,stable
same,stability of solution,[1]; 6 months at room temperature,stable
same,"stability (appearance) of solution in 1,2-propanediol","[1]; 35°C, over 3 weeks",no visible changes
same,Arithmetic mean number of fluke at post mortem,"adult fluke; oral solution, 4 sheep",83
same,% efficacy (reduction in average fluke numbers compared to the control sheep),"adult fluke; oral, vs untreated control sheep",21.6%
same,plasma / blood levels following administration in vivo,[2],low
same,"solubility in 1,2-propanediol","[3]; 5% α-hederin in 1,2-propanediol",soluble
same,"solubility in 1,2-propanediol","[3]; 10% α-hederin in 1,2-propanediol",soluble
